Laboratory results: publication PMC2724674 (Cancer research, 2009)
pIC50: −log10 of the molar value.

Biological target: VEGF receptor 2 kinase (VEGFR2, KDR/Flk-1) (Homo sapiens, UniProt P35968)
Assay: in vitro kinase assay
Type: biochemical

VEGF receptor 2 kinase (VEGFR2, KDR/Flk-1), sequence (P35968 20-1356): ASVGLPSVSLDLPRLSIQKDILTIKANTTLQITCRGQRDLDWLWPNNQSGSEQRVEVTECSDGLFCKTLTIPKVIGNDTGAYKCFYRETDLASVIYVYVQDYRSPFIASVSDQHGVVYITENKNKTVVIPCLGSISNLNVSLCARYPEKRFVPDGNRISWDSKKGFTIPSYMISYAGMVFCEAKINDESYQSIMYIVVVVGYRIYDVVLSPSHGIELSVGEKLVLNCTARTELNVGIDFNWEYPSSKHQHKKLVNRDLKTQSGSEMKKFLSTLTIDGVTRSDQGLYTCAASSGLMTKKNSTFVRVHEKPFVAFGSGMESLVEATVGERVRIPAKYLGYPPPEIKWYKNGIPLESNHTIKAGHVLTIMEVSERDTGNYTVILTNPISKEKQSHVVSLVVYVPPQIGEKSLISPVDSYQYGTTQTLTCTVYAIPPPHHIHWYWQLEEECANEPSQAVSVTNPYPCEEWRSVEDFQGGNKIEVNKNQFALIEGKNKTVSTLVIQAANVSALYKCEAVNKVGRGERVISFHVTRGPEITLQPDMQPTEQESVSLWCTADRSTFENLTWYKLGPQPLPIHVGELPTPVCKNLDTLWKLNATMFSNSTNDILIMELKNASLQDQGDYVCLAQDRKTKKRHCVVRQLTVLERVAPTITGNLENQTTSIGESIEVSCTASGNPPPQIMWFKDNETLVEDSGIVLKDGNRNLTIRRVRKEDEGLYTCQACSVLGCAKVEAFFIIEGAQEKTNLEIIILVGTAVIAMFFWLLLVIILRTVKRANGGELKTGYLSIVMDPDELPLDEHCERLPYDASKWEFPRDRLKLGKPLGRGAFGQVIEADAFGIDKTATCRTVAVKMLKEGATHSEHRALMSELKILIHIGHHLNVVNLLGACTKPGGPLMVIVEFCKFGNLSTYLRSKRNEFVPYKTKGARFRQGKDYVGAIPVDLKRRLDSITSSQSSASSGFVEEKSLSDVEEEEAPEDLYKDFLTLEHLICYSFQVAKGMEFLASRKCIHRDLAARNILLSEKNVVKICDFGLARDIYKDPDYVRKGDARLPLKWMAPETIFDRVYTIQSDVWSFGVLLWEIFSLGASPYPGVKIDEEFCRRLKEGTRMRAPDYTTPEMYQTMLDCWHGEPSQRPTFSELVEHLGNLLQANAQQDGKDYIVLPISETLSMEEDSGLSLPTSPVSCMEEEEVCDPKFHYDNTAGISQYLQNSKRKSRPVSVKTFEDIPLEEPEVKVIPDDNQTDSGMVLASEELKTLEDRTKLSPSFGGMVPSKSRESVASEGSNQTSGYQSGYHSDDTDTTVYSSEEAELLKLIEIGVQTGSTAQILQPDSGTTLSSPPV

CC(=O)O[C@@H]1CC[C@@]2(C)[C@@H](CC[C@]3(C)[C@@H]2C(=O)C=C2[C@@H]4[C@@H](C)[C@H](C)CC[C@]4(C)CC[C@]23C)[C@@]1(C)C(=O)O [AKBA]
pIC50: 5.77
